Measurements taken from US11993598B2, “Compounds for inhibiting EGFR kinase, preparation methods and uses thereof” (WIGEN BIOMEDICINE TECHNOLOGY (SHANGHAI) CO., LTD., priority 2019, dated 2024).

Test system: PC9 cells expressing luciferase
Experiment: In vivo orthotopic brain PC9 xenograft mouse model
Settings: oral
Procedure: Assay 4. In vivo orthotopic brain PC9 xenograft mouse model
3×10^5 PC9 cells expressing luciferase were injected to the mouse brain. Mice were randomized based on brain flurorescence intensity and body weight, and were orally administered vehicle or compound 1. Survival and body weights were monitored every day and mice with more than 20% body weight loss were sacrificed.

Measured: Mice Survival Rate (%)

C=CC(=O)Nc1cc(Nc2nccc(-n3c(=O)n4c5c(cc(F)cc53)CCC4)n2)c(OC)cc1N(C)CCN(C)C [Compound 1, N-(2-((2-(dimethylamino)ethyl)(methyl)amino)-5-((4-(8-fluoro-2-oxo-5,6-dihydro-4H-imidazo[4,5,1-ij]quinolin-1(2H)-yl)pyrimidin-2-yl)amino)-4-methoxyphenyl)acrylamide]
100%: 30 mg/kg QD, Day 16 | 30 mg/kg QD, Day 17 | 30 mg/kg QD, Day 18 | 30 mg/kg QD, Day 22 | 30 mg/kg QD, Day 24 | 30 mg/kg QD, Day 26 | 30 mg/kg QD, Day 28 | 60 mg/kg BID, Day 16 | 60 mg/kg BID, Day 17 | 60 mg/kg BID, Day 18 | 60 mg/kg BID, Day 22 | 60 mg/kg BID, Day 24 | 60 mg/kg BID, Day 26 | 60 mg/kg BID, Day 28 | 60 mg/kg QD, Day 16 | 60 mg/kg QD, Day 17 | 60 mg/kg QD, Day 18 | 60 mg/kg QD, Day 22 | 60 mg/kg QD, Day 24 | 60 mg/kg QD, Day 26 | 60 mg/kg QD, Day 28
